Here are results for two compounds from article PMC11088877, “AMP-activated protein kinase can be allosterically activated by ADP but AMP remains the key activating ligand” (Biochemical Journal, 2024).

Several values for one entry are separate records, joined by “and”; a condition that tells them apart may be missing. Equal values may be shown once. Read-outs that look alike come from different tables or passages of the source.

For assay [1], the target named is T1, human α2β2γ1 complex (WT) (Homo sapiens, UniProt P54619+P54646).
T1 construct: made in house; host or cells: Escherichia coli
T1 sequence (P54619 whole entry): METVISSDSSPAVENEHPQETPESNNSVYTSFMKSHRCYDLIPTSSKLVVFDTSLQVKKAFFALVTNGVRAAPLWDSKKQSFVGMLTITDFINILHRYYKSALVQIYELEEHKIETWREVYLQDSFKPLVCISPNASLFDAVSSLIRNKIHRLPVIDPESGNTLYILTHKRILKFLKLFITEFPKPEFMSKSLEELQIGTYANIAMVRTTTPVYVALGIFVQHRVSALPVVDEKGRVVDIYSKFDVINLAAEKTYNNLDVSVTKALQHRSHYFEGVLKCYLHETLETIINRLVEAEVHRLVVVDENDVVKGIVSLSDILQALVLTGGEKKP
T1 sequence (P54646 whole entry): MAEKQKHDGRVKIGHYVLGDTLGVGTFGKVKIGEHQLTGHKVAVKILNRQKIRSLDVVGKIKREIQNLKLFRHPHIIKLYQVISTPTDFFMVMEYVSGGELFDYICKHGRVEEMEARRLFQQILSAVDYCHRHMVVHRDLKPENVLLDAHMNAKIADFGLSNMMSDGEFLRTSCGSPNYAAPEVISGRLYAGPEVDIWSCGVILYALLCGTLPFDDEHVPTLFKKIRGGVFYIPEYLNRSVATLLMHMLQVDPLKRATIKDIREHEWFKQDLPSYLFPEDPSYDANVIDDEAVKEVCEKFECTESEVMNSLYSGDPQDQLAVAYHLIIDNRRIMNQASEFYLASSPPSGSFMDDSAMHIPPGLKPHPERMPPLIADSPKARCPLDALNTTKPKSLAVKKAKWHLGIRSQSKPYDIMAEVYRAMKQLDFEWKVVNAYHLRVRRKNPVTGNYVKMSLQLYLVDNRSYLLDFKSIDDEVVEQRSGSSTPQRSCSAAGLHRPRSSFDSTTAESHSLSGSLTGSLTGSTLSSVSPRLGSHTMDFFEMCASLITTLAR
T1 sequence (O43741 whole entry partner): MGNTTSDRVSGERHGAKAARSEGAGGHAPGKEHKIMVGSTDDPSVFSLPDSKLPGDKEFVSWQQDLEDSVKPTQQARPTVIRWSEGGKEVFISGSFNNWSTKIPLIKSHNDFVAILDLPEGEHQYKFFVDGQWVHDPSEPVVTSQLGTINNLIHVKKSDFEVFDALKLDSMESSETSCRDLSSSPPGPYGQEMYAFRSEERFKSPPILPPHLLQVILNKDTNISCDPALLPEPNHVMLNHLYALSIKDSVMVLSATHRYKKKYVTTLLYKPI
The assay can be described thus: Allosteric activation of WT human α2β2γ1 AMPK complex by AMP and ADP. The format is biochemical. From the text:
To study allosteric activation with a more well-defined AMPK complex, and to study the effects of mutations in individual adenine nucleotide-binding sites on the γ subunit, we expressed a human α2β2γ1 complex in Escherichia coli and purified it utilizing the polyhistidine tag at the N-terminus of the α2 subunit. […] However, it had not been co-expressed with an N-myristoyl transferase so would not have been N-myristoylated on the β2 subunit. The complex was expressed not only with the WT γ1 sequence but also with mutations affecting hydrophobic residues previously shown to be involved in binding of the adenine moieties of nucleotides at CBS1 (L129D/V130D), CBS3 (V276G/L277G) and CBS4 (I312G). All four complexes co-purified as heterotrimeric 1:1:1 complexes as expected, and were phosphorylated and activated equally well either by CaMKK2 or the LKB1: STRADα:MO25α complex (Supplementary Figure S2). For the studies described below we phosphorylated Thr172 using a GST-tagged CaMKK2 and repurified AMPK using size exclusion chromatography and a glutathione-Sepharose column, which remove CaMKK2.
Figure 4. Allosteric activation of WT and mutant human α2β2γ1 AMPK complex by AMP and ADP at three different concentrations of ATP. The α2β2γ1 complex was phosphorylated on Thr172 prior to assay using CaMKK2. The γ1 subunit was either (A/E): WT; (B/F): a CBS1 mutant (L129D/V130D); (C/G): a CBS3 mutant (V276G/L277G); (D/H): a CBS4 mutant (I312G). Results are means of duplicate assays ± SD; error bars are not shown if they were smaller than the symbols used for mean values. Assays and curve fitting were as in Figure 1 at either 0.2 mM (left panels) or 5 mM (right panels) ATP. Best-fit values for all parameters used to generate the curves are listed in Supplementary Table S1.
Sources of antibodies were as described: pThr172 (AMPK-α: Cell Signaling Technologies, Danvers, MA, U.S.A., Cat# 2535), AMPK-α2 [22]. Rat liver AMPK was purified as described previously. Plasmid encoding human (His)6-tagged AMPK (α2β2γ1, bacterially expressed) generated as in [23], was a gift from AstraZeneca, Cambridge, U.K. The L129D/V130D (CBS1), V276G/L277G (CBS3) and I312G (CBS4) mutations in the α2β2γ1 complex were generated using the Quikchange II site-directed mutagenesis kit (Agilent Technologies) and confirmed by DNA sequencing. Human GST-tagged α2 kinase domain (1–310), LKB1:STRAD-α:MO25-α complexes, GST-tagged CaMKK2 [26], and PPM1A (PP2Cα) were produced as described. Bacterially expressed heterotrimers were activated by phosphorylation of Thr172 by GST-tagged CaMKK2 in the presence of ATP, and CaMKK2 was subsequently removed by passage through glutathione-Sepharose. Human GST-tagged α2 kinase domain was activated in a similar manner except that human (His)6-tagged LKB1:STRAD-α:MO25-α complex was used and removed after activation via passage through a His-Trap column. Recombinant human 5′-nucleotidase, CD73, Cat # 5795-EN-01, was from R&D systems (Minneapolis, MN, U.S.A.).
AMPK assays measured the transfer of radioactivity from [γ-^33P]ATP to a peptide substrate, which was separated from unreacted ATP by binding to P81 paper. This assay was described previously except that we used [γ-^33P] rather than [γ-^32P]ATP. In some assays (specified in Figure legends) the concentration of ATP was increased from 0.2 to 1 or 5 mM ATP, with MgCl2 concentrations maintained at a constant 4.8 mM excess above the concentration of ATP [19]. Where allosteric activation by AMP or ADP was being studied, we used the SAMS peptide as substrate. For all other assays the AMARA peptide was used.

Assay [2] deals with T2, unphosphorylated human α2β2γ1 complex (WT) (Homo sapiens, UniProt P54619+P54646).
T2 construct: made in house; host or cells: Escherichia coli
T2 sequence (P54619 whole entry): as the sequence (P54619 whole entry) above
T2 sequence (P54646 whole entry): as the sequence (P54646 whole entry) above
T2 sequence (O43741 whole entry partner): as the sequence (O43741 whole entry partner) above
Description: AMPK activation and Thr172 phosphorylation by the LKB1:STRADα:MO25α complex, WT. The class given is biochemical. The settings on record: 300 µM nucleotide, 200 µM Mg.ATP2−. The method, then: The relative roles of the three CBS sites in the other two mechanisms of activation of AMPK by AMP or ADP, i.e. promotion of Thr172 phosphorylation by LKB1, and protection against Thr172 dephosphorylation by protein phosphatases, have not been examined previously. As expected, incubation of the α2β2γ1 AMPK complex with a fixed, limiting amount of purified LKB1:STRADα:MO25α complex in the presence of 200 µM Mg.ATP^2− caused a large degree of activation (Figure 5A) and phosphorylation (Figure 5B) of AMPK (unphosphorylated α2β2γ1 complex), which were stimulated more than 2-fold by 300 µM AMP and 1.6-fold by 300 µM ADP.
Figure 5. Effects of AMP or ADP on AMPK activation and Thr172 phosphorylation by the LKB1:STRADα:MO25α complex. Unphosphorylated human α2β2γ1 complexes (WT, or with L129D/V130D, V276G/L277G or I312G mutations affecting CBS1, CBS3 or CBS4 respectively) were incubated with ATP and a fixed concentration of the LKB1:STRADα:MO25α complex in the presence or absence of AMP or ADP (both 300 µM), as described in the Materials and methods section. After the incubation aliquots were withdrawn for (A) AMPK assay or (B) Western blots. […] For (B), due to a limit on the number of lanes that could be run on one gel, single replicates from the triplicate assays were analysed. […]

The test system of assay [3] is FLAG-γ1-containing AMPK complexes. On the set-up: method as in PMID 26542978. The settings on record: ADP 300 µM to 3 mM; cited from earlier work.

As to `Nc1ncnc2c1ncn2[C@@H]1O[C@H](COP(=O)(O)OP(=O)(O)O)[C@@H](O)[C@H]1O` [ADP], in assay [1] (0.2 mM ATP), the “Activation (maximal)” value was “did not cause allosteric activation and none”; 2600 µM corresponded to half-maximal inhibition (IC50). Moreover, in assay [1] (5 mM ATP), the “maximal activation actually reached” value came out at 1.6 fold. In assay [1] (5.0 mM ATP), the “Activation (extrapolated maximal)” value was 9.9 fold and 9.9 (2.8 -??) fold; 1200 µM corresponded to half-maximal inhibition (IC50); the IC50/EC50 is given as 1.5. Moreover, in assay [1] (5.0 mM ATP, read-out: EC50), the EC50 stood at 785 µM. For the same compound, the EC50 in assay [1] (5 mM ATP, read-out: EC50 for activation) is 780 µM and 800 µM. Besides, in assay [2], the “stimulation of activation and phosphorylation of AMPK by LKB1:STRADα:MO25α complex” value is listed as 1.6 fold. Moreover, the “stimulation of activation by LKB1” value in assay [3] is under 2 fold.

With `Nc1ncnc2c1ncn2[C@@H]1O[C@H](COP(=O)(O)O)[C@@H](O)[C@H]1O` [AMP], in assay [1] (0.2 mM ATP), the “Activation (maximal)” value is 2.6 fold and 2.6 (2.5-2.6) fold; it took 2600 µM to reach half-maximal inhibition (IC50); the IC50/EC50 is reported as 2600. Also, in assay [1] (0.2 mM ATP, read-out: EC50), the EC50 was 0.99 µM and 1 µM. In addition, in assay [1] (5.0 mM ATP), the “Activation (extrapolated maximal)” value was 3.0 fold and 3.0 (2.9-3.1) fold; it took 52000 µM to reach half-maximal inhibition (IC50); the IC50/EC50 amounted to 2700. Also, the EC50 in assay [1] (5.0 mM ATP, read-out: EC50) worked out at 19 µM. Besides, the “stimulation of activation and phosphorylation of AMPK by LKB1:STRADα:MO25α complex” value in assay [2] is listed as “more than 2 fold”.

A word on the IC50: it is the point on the concentration scale where inhibition reaches its midpoint. Low values mean higher potency, high ones lower potency. What is called EC50 is the concentration giving half of the maximal effect.
